According to US11192900B2, “Substituted 1,6-dihydropyridinones and 1,2-dihydroisoquinolinones as bet inhibitors” (NUVATION BIO INC., priority 2018, dated 2021):

What was measured:
Type in all cases: cell-based
OCI-AML3 = test: Cell viability in AML and DLBCL cell lines (Cell Titer-Glo); settings: Homo sapiens, OCI-AML-3, 72 hr
Description: (§1) A panel of AML and DLBCL cell lines was profiled for effects of compound 3 on cell viability. Cells were seeded at a count of 3000-8000 cells per well/40 μl in a 384-well plate and incubated at 37° C., 5% CO2 overnight. Cells were treated with test compounds at 10 concentrations within a desired concentration range (e.g. 0.5 nM-10 μM) for generation of dose response curves by preparing serial dilutions of the test compound in DMSO which were further diluted with culture medium and then added in a volume of […] to each well. Cells were cultured in the presence of inhibitors at various concentrations for 72 hr. The assay was terminated by addition of […] Cell Titer-Glo reagent (Promega, Madison, Wis.) to each well. Contents were mixed, the plate was incubated for 10 min at room temperature and luminescence was measured. The IC50 value of each test compound was calculated with XLFit curve fitting software.

RS4; 11 = test: as above; settings: Homo sapiens, 11, Cell Titer-Glo, 72 hr
Description: as §1

SU-DHL4 = test: as above; settings: Homo sapiens, SU-DHL-4, 72 hr
Description: as §1

SU-DHL6 = test: as above; settings: Homo sapiens, SU-DHL-6, 72 hr
Description: as §1

OCI-LY18 = test: Cell viability assay (XTT); settings: Homo sapiens, up to 72 hr
Description: (§2) A panel of BET-sensitive and insensitive cell lines were profiled for effect on cell viability using compound 3. Cells were cultured in the presence of inhibitors at various concentrations for up to 72 hr. For cell viability assays as previously described (Guo Y, et al. 2012. J Hematol Oncol 5:72; Chen Y, et al. 2016. Oncogene 35:2971-8), 0.08 mg/ml XTT (2,3-bis-(2-methoxy-4-nitro-5-sulfophenyl)-2H-tetrazolium-5-carboxanilide) and 8 μM phenazine methyl sulfate (PMS) were added to the cells at the end of the test compound or vehicle treatment duration, and absorbance at 450 nm was measured after 3 hr incubation at 37° C. Assays were performed in triplicates. IC50 values were estimated using a non-linear mixed effect model fitting a sigmoid curve to the experimental dose response data (Vis D J, et al. 2016. Pharmacogenomics 17(7):691-700).

U2973 = test: Cell viability assay (XTT); settings: Homo sapiens, U-2973, up to 72 hr
Description: as §2

THP-1 = test: Cell viability assay (XTT); settings: Homo sapiens; THP-1, XTT, up to 72 hr
Description: as §2

HEL = test: Cell viability assay (XTT); settings: Homo sapiens, up to 72 hr
Description: as §2

MEG-01 = test: Cell viability assay (XTT); settings: Homo sapiens; MEG-01, XTT, up to 72 hr
Description: as §2

SET-2 = test: Cell viability assay (XTT); settings: Homo sapiens; SET-2, XTT, up to 72 hr
Description: as §2

Molt-4 = test: Cell viability assay (XTT); settings: Homo sapiens; Molt-4, XTT, up to 72 hr
Description: as §2

Jurkat = test: Cell viability assay (XTT); settings: Homo sapiens, up to 72 hr
Description: as §2

MV-4-11 = test: Cell viability assay (XTT); settings: Homo sapiens, MV4-11; MV-4-11, XTT, up to 72 hr
Description: as §2

K562 = test: Cell viability assay (XTT); settings: Homo sapiens, up to 72 hr
Description: as §2

[1] = tested on: IEC-6 rat intestinal epithelial cell line; test: IEC-6 cell viability, Protocol B (toxicity to non-cancerous cells); settings: Rattus norvegicus; IEC-6, 4000 cells per well, 48 hrs
Description: The effects of test compounds were also studied in the IEC-6 rat intestinal epithelial cell line to assess potential toxicity to non-cancerous cells. The cells were harvested during the logarithmic growth period and counted. In Protocol A, cells were seeded at a count of 3000 cells per well/100 μl in a 96-well plate. After seeding, cells were incubated at 37° C., 5% CO2 for 24 hr. Cells were treated with test compounds at 8 concentrations within a desired concentration range (e.g. 5 nM-10 μM) for generation of dose response curves by preparing serial dilutions of the test compound in DMSO which were further diluted with culture medium and then added to each well. The plate was further incubated for another 96 hrs in humidified incubator at 37° C. and 5% CO2. The assay was terminated by addition of resazurin (# R7017, Sigma). The plate was incubated for 4 hr at 37° C., 5% CO2 and fluorescence was measured using excitation and emission wavelengths of 535 and 590 nm, respectively. Cell viability data were plotted using GraphPad Prism (GraphPad Software, Inc., San Diego, Calif.). In addition, a nonlinear regression model with a sigmoidal dose response and variable slope within GraphPad Prism was used to calculate the IC50 value of individual test compounds. Protocol B was the same as Protocol A except that cells were seeded at a count of 4000 cells per well/100 μl in a 96-well plate, and the incubation with test compound was for 48 hrs instead of 96 hrs.

[2] = tested on: 22Rv1 human prostate carcinoma cell line; test: Cell viability assay (resazurin); settings: 22Rv1, resazurin, 72 hrs
Description: (§3) The effects of test compounds were also studied in the 22Rv1 human prostate carcinoma and MDA-MB-231 human breast adenocarcinoma cell lines. The cells were harvested during the logarithmic growth period and counted. Cells were seeded at a count of 3000 cells (22Rv1) or 5000 cells (MDA-MB-231) per well/100 μl in a 96-well plate. After seeding, cells were incubated at 37° C., 5% CO2 for 24 hr. Cells were treated with test compounds at 8 concentrations within a desired concentration range (e.g. 5 nM-10 μM) for generation of dose response curves by preparing serial dilutions of the test compound in DMSO which were further diluted with culture medium and then added to each well. The plate was further incubated for another 72 hrs (22Rv1) or 96 hrs (MDA-MB-231) in humidified incubator at 37° C. and 5% CO2. The assay was terminated by addition of resazurin (# R7017, Sigma). The plate was incubated for 4 hr at 37° C., 5% CO2 and fluorescence was measured using excitation and emission wavelengths of 535 and 590 nm, respectively. Cell viability data were plotted using GraphPad Prism (GraphPad Software, Inc., San Diego, Calif.). In addition, a nonlinear regression model with a sigmoidal dose response and variable slope within GraphPad Prism was used to calculate the IC50 value of individual test compounds.

[3] = tested on: MDA-MB-231 human breast adenocarcinoma cell line; test: Cell viability assay (resazurin); settings: MDA-MB-231, resazurin, 96 hrs
Description: as §3

Q: How did the IC50 (OCI-AML3) turn out when C=CS(=O)(=O)Nc1ccc(Oc2ccc(F)cc2F)c(-c2cc(NC)c(=O)n(C)c2)c1 [Compound 3, N-(4-(2,4-difluorophenoxy)-3-(1-methyl-5-(methylamino)-6-oxo-1,6-dihydropyridin-3-yl)phenyl)ethenesulfonamide] was run?
A: Its IC50 is 50 nM.

Q: And the IC50 (RS4; 11)?
A: Its IC50 is 128 nM.

Q: And the IC50 (SU-DHL4)?
A: Its IC50 is 22 nM.

Q: What about the IC50 (SU-DHL6) of the same compound?
A: The IC50 was 47 nM.

Q: What about the IC50 (OCI-LY18) of the same compound?
A: Its IC50 is 420 nM.

Q: And the IC50 (U2973)?
A: Its IC50 is 240 nM.

Q: And the IC50 (THP-1)?
A: Its IC50 is 250 nM.

Q: What about the IC50 (HEL) of the same compound?
A: Its IC50 is 400 nM.

Q: And the IC50 (MEG-01)?
A: Its IC50 is 310 nM.

Q: What about the IC50 (SET-2) of the same compound?
A: Its IC50 is 90 nM.

Q: What about the IC50 (Molt-4) of the same compound?
A: The IC50 was 300 nM.

Q: What about the IC50 (Jurkat) of the same compound?
A: Its IC50 is 6 µM.

Q: What about the IC50 (MV-4-11) of the same compound?
A: The IC50 was 100 nM.

Q: What about the IC50 (K562) of the same compound?
A: The IC50 was 5 µM.

Q: And the IC50 [1]?
A: The IC50 was 173 nM.

Q: What about the IC50 [2] of the same compound?
A: Its IC50 is 58 nM.

Q: And the IC50 [3]?
A: Its IC50 is 82 nM.
